This is an account of results in patent EP1724268A1, “COMPOUND HAVING TGF-BETA INHIBITORY ACTIVITY AND PHARMACEUTICAL COMPOSITION CONTAINING SAME” (KIRIN BEER KABUSHIKI KAISHA, priority 2004, dated 2005).

The assay concerns TGFβ signal. Description: TGFβ signal inhibitory activity, (SBE)4-Luc reporter in A549 cells (Test Examples 1A and 1B). The note with it: Homo sapiens, A549, read-out: TGFβ inhibition rate, %. It is filed as cell-based, human. Put shortly: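 Compounds at 3 µM and 10 µM (some 1 µM) were added with 2 ng/ml TGFβ-1 to A549 cells stably expressing an SBE-driven luciferase, then cultured 4 hr. Chemiluminescent luciferase signal gave % inhibition versus TGFβ-alone and no-TGFβ controls.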

The mark [1] stands for this setting: test compound 3 µM, TGFβ-1 2 ng/ml, 4 hr, Table 1A.
Where [2] appears, read: test compound 10 µM, TGFβ-1 2 ng/ml, 4 hr, Table 1A.
Where [3] appears, read: 3 µM, compounds of Reference Examples (Test Example 1B).
Setting [4] is: 10 µM, compounds of Reference Examples (Test Example 1B).
The mark [5] stands for this setting: test compound 3 µM, Reference Examples, Table 1B.
[6] abbreviates: test compound 10 µM, Reference Examples, Table 1B.

Like-named read-outs stand apart in the source and are kept apart here.

For the compound `Cc1cc(Oc2ccnc3ccc(F)cc23)c(-c2ccccn2)nc1C` [Compound 103, 3-(6-Fluoro-quinolin-4-yloxy)-5,6-dimethyl-[2,2']bipyridine], the inhibition (in general, the percentage by which the read-out fell short of the control) at 3 µM under setting [1] was 99%. Also, under setting [2], the inhibition at 10 µM stood at 100%.

`CCCOC(=O)c1cc2ccccc2cc1Oc1ccnc2cc(OC)c(OC)cc12` [r201]: under setting [3], the inhibition at 3 µM came out at 79%. The inhibition at 10 µM under setting [4] is 100%.

With `COc1cc2nccc(Oc3cc(C)c(C)cc3I)c2cc1OC` [Compound r164, 4-(2-Iodo-4,5-dimethyl-phenoxy)-6,7-dimethoxy-quinoline], under setting [3], the inhibition at 3 µM worked out at 54%. The inhibition at 10 µM under setting [4] came out at 98%.

Consider `COc1cc2nccc(Oc3cc(C)c(C)cc3/C(C)=N/Oc3ccccc3)c2cc1OC` [r199], for which, under setting [3], the inhibition at 3 µM was determined as 14%. Further, the inhibition at 10 µM under setting [4] is 59%.

`COc1cc2c(Oc3cc4ccccc4nc3C(C)=O)ccnc2cc1OCC(O)CO` (stereo not drawn) [Compound r395]: the inhibition at 3 µM under setting [3] was found to be 96%. Further, the inhibition at 10 µM under setting [4] is 100%.

Regarding `COc1cccc(-c2nc3ncccc3cc2Oc2ccnc3cc(OC)c(OC)cc23)c1` [Compound 81, 3-(6,7-Dimethoxy-quinolin-4-yloxy)-2-(3-methoxy-phenyl)-[1,8] naphthyridine], the inhibition at 3 µM under setting [1] worked out at 97%. For the same compound, the inhibition at 10 µM under setting [2] is 100%.

Regarding `COc1cc2c(Oc3cc4cnccc4nc3C)ccnc2cc1OCC(CO)CO` [r409], the inhibition at 3 µM under setting [3] was determined as 41%. The inhibition at 10 µM under setting [4] was determined as 88%.

Consider `COc1cc2nccc(Oc3c(C)nc4ccccc4c3Br)c2cc1OC` [r291], for which the inhibition at 3 µM under setting [3] was 14%. The inhibition at 10 µM under setting [4] is 78%.

Regarding `COc1cc2nccc(Oc3cc4cccnc4nc3-c3ccccc3)c2cc1OC(C)C` [Compound 118, 3-(6-Isopropoxy-7-methoxy-quinolin-4-yloxy)-2-phenyl-[1,8]naphthyridine], the inhibition at 3 µM under setting [1] came to 100%. Under setting [2], the inhibition at 10 µM was found to be 100%.

`COc1cc2c(Oc3cc(C)c(C)nc3-c3cccc(C)n3)ccnc2cc1OCCNCCO` [Compound r468]: the inhibition at 3 µM under setting [3] was determined as 99%.

In the case of `COc1cc2c(Oc3cc(C)c(C)nc3-c3cccc(C)n3)ccnc2cc1OCCCl` [Compound r465], under setting [3], the inhibition at 3 µM came out at 98%. For the same compound, the inhibition at 10 µM under setting [4] came to 100%.

On to `COc1cc2nccc(Oc3ccc(C)nc3-c3cc(F)cc(F)c3)c2cc1OC` [Compound r254], for which the inhibition at 3 µM under setting [3] amounted to 100%. The inhibition at 10 µM under setting [4] amounted to 100%.

Regarding `COc1cc2nccc(Oc3ccc(C)cc3C(=O)C3CCCC3)c2cc1OC` [r58], the inhibition at 3 µM under setting [5] turned out to be 90%. For the same compound, the inhibition at 10 µM under setting [6] was determined as 100%.

Consider `COc1cc2c(Oc3cc4cccnc4nc3-c3ccccc3)ccnc2cc1Cl` [Compound 61, 3-(7-Chloro-6-methoxy-quinolin-4-yloxy)-2-phenyl-[1,8]naphthyrridine], for which the inhibition at 3 µM under setting [1] was found to be 98%. In addition, the inhibition at 10 µM under setting [2] worked out at 100%.

Consider `COc1cc2c(Oc3cc4cccnc4nc3C)ccnc2cc1OCC(CO)CO` [Compound r404], for which the inhibition at 3 µM under setting [3] is 29%. Further, the inhibition at 10 µM under setting [4] was 72%.

For the compound `Cc1cc(Oc2ccnc3cc(-c4cccc(O)c4)ccc23)c(-c2ccccn2)nc1C` [Compound 106, 3-[4-(5,6-Dimethyl-[2,2']bipyridinyl-3-yloxy)-quinolin-7-yl]-phenol], the inhibition at 3 µM under setting [1] stood at 99%. Moreover, the inhibition at 10 µM under setting [2] came to 100%.

For `COc1cc2nccc(Oc3ccc(C)cc3Cl)c2cc1OC` [Compound r3], the inhibition at 3 µM under setting [5] came to 0%. Besides, the inhibition at 10 µM under setting [6] was 75%.

Consider `COc1cc2c(Oc3cc4ccccc4nc3C)ccnc2cc1OCCN1CCC(C(N)=O)CC1` [Compound r362], for which the inhibition at 3 µM under setting [3] turned out to be 100%. Under setting [4], the inhibition at 10 µM turned out to be 100%.

In the case of `COc1cc2nccc(Oc3ccccc3C(=O)OCCC(C)C)c2cc1OC` [Compound r99], the inhibition at 3 µM under setting [5] turned out to be 7%. Also, under setting [6], the inhibition at 10 µM turned out to be 92%.

Regarding `COc1cc2nccc(Oc3ccc4ncsc4c3I)c2cc1OC` [r294], under setting [3], the inhibition at 3 µM was determined as 53%. For the same compound, the inhibition at 10 µM under setting [4] turned out to be 77%.
